Experimental data from patent US6376488B1, “Benzoxazine α-1 adrenergic compounds” (Abbott Laboratories, priority 2000, dated 2002).
Counter-ions that a name gives are not always drawn.

Molecular target: T1, α1a (bovine) adrenoreceptor (Bos taurus, UniProt P18130)
T1 sequence (P18130 1-466): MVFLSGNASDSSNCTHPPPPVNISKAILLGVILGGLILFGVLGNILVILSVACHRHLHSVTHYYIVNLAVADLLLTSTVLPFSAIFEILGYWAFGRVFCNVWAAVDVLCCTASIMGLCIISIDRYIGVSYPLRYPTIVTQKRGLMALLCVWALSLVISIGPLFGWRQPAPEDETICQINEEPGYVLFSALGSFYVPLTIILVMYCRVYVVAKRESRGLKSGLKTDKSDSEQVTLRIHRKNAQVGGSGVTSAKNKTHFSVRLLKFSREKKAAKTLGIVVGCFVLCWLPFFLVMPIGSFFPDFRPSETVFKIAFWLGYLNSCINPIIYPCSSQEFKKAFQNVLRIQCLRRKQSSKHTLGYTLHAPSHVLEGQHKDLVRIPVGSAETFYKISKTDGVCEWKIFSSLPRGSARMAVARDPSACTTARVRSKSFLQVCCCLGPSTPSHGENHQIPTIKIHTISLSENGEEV
Test: [3H]-prazosin radioligand binding, cloned α1a (bovine) adrenoreceptor in LTK cells
Settings: cloned receptor in LTK cell membranes, [3H]prazosin 0.2 nM
Protocol: Representative compounds of the invention were evaluated for α adrenoreceptor binding affinity in vitro using [^3H]-prazosin as the radioligand and following four cloned α1, adrenoreceptors expressed in LTK cells: α1a (rat), α1a (bovine), α1b : (hampster), and α1d (rat).
The cDNA clones encoding the α1, adrenoreceptors were obtained from TULCO (Triangle Universities Licensing Consortium, Research Triangle Park, N.C.) and inserted into the eukaryotic expression vector SnaB30. In this vector, expression of the adrenoreceptor gene is under the transcriptional control of an SV40 early promoter. Positive drug selection is provided by a neomycin-resistance gene. Mouse fibroblast cells (LTK) were transfected with the α1 expression plasmids and grown in Dulbecco's modified Eagle's medium (DMEM) containing 10% fetal calf serum and 30 μM G418. Stable G418-resistant parental lines were generated with successful expression of adrenoreceptor protein monitored using radioligand binding techniques. Stable single cell clones derived from the parental lines were screened in adrenoreceptor binding assays to identify clones having high adrenoreceptor density. Roller bottle cultures of the cloned lines were used to provide cell membranes for subsequent adrenoreceptor binding characterization studies. A cell line containing the SnaB30 vector expressing the human erythropoietin gene served as a negative control.
For adrenoreceptor binding assays, large scale membrane preparations were utilized in which 6 million cells were seeded into small (450 cm^2) Coming tissue culture roller bottles. DMEM (200 mL) containing 10% fetal calf serum and 300 μM G418 were added to each roller bottle. A 95% air/5% CO2 gas mixture (sterile) was injected into each roller bottle prior to sealing, and the bottles were then incubated at 37° C. on a roller rack for 5 days. Cells were refed with fresh medium after 3 days in culture.
On the fifth day of culture, growth medium was removed from cells grown in roller bottles, and the cells were washed twice with PBS (Sigma, 120 mM NaCl, 2.7 mM KCl, 10 mM Na2HPO4-NaH2PO4, pH=7.4). Cells were detached from the roller bottles by incubating for 15 minutes at 37° C. in a Tris-EDTA solution (10 mM Tris, 100 mM NaCl, 1 mM EDTA, pH=7.4). The cell suspension from each roller bottle was decanted into tared centrifuge tubes and kept on ice. An aliquot of each cell suspension was generally taken for cell counting. Cells were centrifuged at 3000×G for 5 minutes at 2-4° C., washed with PBS and recentrifuged. The supernatant was decanted, and the pellet was weighed to determine the wet weight of cells. Cells were washed a final time in 40 vol 5 mM Tris-HCl, 5 mM EDTA, pH=7.7 and centrifuged at 40,000×G for 10 minutes (“vol” indicates volume/weight, e.g., a “vol” of 40 would indicate that the one gram of cells were washed with 40 mls of buffer). Cells were homogenized in of 50 mM Tris-HCl, 5 mM EDTA (pH=7.4) (10 mL) and diluted to 40 mL/tube. Homogenates were centrifuged at 40,000×G for 10 minutes. The supernatant was decanted and the pellets rehomogenized in 50 mM Tris-HCl (pH=7.4) and centrifuged as before. The supernatant was decanted and the homogenate was resuspended in 6.25 volumes (per gram wet weight) of 50 mM Tris-HCl and aliquots of the pooled homogenates frozen in liquid N2 and,stored at −70° C. until the time of assay.
Receptor binding assays for α1 adrenoreceptors were performed essentially as described by Greengrass and Bremner (Eur. J. Pharmacol. 55: 323-326 (1979)). […] Following equilibration, bound radioligand was separated from free on GF/B filters (presoaked in 0.5% polyethyleneimine) using ither a Brandel or Packard cell harvester. Radioactivity was determined by standard liquid scintillation techniques. Data were analyzed as previously described (Hancock, A. A., Kyncl, J. J., Martin, Y. C. and DeBemardis, J. F., J. Receptor Res. 8: 23-46 (1988)). The in Table 1.

Ki [nM]	Compound
0.249	COc1cccc2c1N1CCN(CCCn3c(=O)[nH]c4c(sc5cccnc54)c3=O)CC1CO2.Cl.Cl.Cl (single isomer, unassigned; (-)) [Example 9, (−) 3-[3-(10-methoxy-1,2,4a,5-tetrahydropyrazino[2,1-c][1,4]benzoxazin-3(4H)-yl)propyl]pyrido[2′,3′:4,5]thieno[3,2-d]pyrimidine-2,4(1H, 3H)-dione trihydrochloride]
0.243	COc1cccc2c1N1CCN(CCCCn3c(=O)[nH]c4c(sc5cccnc54)c3=O)CC1CO2 (single isomer, unassigned; (+)) [Example 14, (+) 3-[4-(10-methoxy-1,2,4a,5-tetrahydropyrazino[2,1-c][1,4]benzoxazin-3(4H)-yl)butyl]pyido [2′,3′:4,5]thieno[3,2-d]pyrimidine-2,4(1H,3H)-dione trihydrochloride]
2.09	Cl.Cl.O=c1[nH]c2c(sc3cccnc32)c(=O)n1CCCCN1CCN2c3ccccc3OCC2C1 (single isomer, unassigned; (+)) [Example 3, (+) 3-[4-(1,2,4a,5-tetrahydropyrazino[2,1-c][1,4]benzoxazin-3(4H)-yl)butyl]pyrido[2′, 3′:4,5]thieno[3,2-d]pyrimidine-2,4(1H,3H)-dione dihydrochloride]
5.51	Cl.Cl.O=c1[nH]c2c(sc3ncccc32)c(=O)n1CCCCN1CCN2c3ccccc3OCC2C1 (single isomer, unassigned; (-)) [Example 6, (−) 3-[4-(1,2,4a,5-tetrahydropyrazino[2,1-c][1,4]benzoxazin-3(4H)-yl)butyl]pyrido[3′, 2′:4,5]thieno[3,2-d]pyrimidine-2,4(1H,3H)-dione dihydrochloride]
2.5	COc1cccc2c1N1CCN(CCCn3c(=O)[nH]c4c(sc5cccnc54)c3=O)CC1CO2.Cl.Cl.Cl (single isomer, unassigned; (+)) [Example 17, (+) 3-[3-(10-methoxy-1,2,4a,5-tetrahydropyrazino[2,1-c][1,4]benzoxazin-3(4H)-yl)propyl]pyrido[2′,3′:4,5]thieno[3,2-d]pyrimidine-2,4(1H,3H)-dione trihydrochloride]
1.18	Cl.Cl.O=c1[nH]c2c(sc3cccnc32)c(=O)n1CCCN1CCN2c3ccccc3OCC2C1 (single isomer, unassigned; (+)) [Example 1, (+) 3-[3-(1,2,4a,5-tetrahydropyrazino[2,1-c][1,4]benzoxazin-3(4H)-yl)propyl]pyrido[2′,3′:4,5]thieno[3,2-d]pyrimidine-2,4(1H,3H)-dione dihydrochloride]
0.463	COc1cccc2c1N1CCN(CCn3c(=O)[nH]c4c(sc5ncc(Cl)nc54)c3=O)CC1CO2.Cl.Cl (single isomer, unassigned; (+)) [Example 8, (+) 3-[2-(10-methoxy-1,2,4a,5-tetrahydropyrazino[2,1-c][1,4]benzoxazin-3(4H)-yl)ethyl]-8-chloropyrazino[2′,3′:4,5]thieno[3,2-d]pyrimidine-2,4(1H,3H)-dione dihydrochloride]
0.685	COc1cccc2c1N1CCN(CCn3c(=O)[nH]c4c(sc5ncc(Cl)nc54)c3=O)CC1CO2.Cl.Cl (single isomer, unassigned; (-)) [Example 13, (−) 3-[2-(10-methoxy-1,2,4a,5-tetrahydropyrazino[2,1-c][1,4]benzoxazin-3(4H)-yl)ethyl]-8-chloropyrazino[2′,3′:4,5]thieno[3,2-d]pyrimidine-2,4(1H,3H)-dione dihydrochloride]
0.334	COc1cccc2c1N1CCN(CCn3c(=O)[nH]c4c(sc5cccnc54)c3=O)CC1CO2.Cl.Cl.Cl (single isomer, unassigned; (+)) [Example 16, (+) 3-[2-(10-methoxy-1,2,4a,5-tetrahydropyrazino[2,1-c][1,4]benzoxazin-3(4H)-yl)ethyl]pyrido[2′,3′:4,5]thieno[3,2-d]pyrimidine-2,4(1H,3H)-dione trihydrochloride]
0.289	COc1cccc2c1N1CCN(CCCCn3c(=O)[nH]c4c(sc5ncccc54)c3=O)CC1CO2.Cl.Cl.Cl (single isomer, unassigned; (+)) [Example 15, (+) 3-[4-(10-methoxy-1,2,4a,5-tetrahydropyrazino[2,1-c][1,4]benzoxazin-3(4H)-yl)butyl]pyrido[3′,2′:4,5]thieno[3,2-d]pyrimidine-2,4(1H,3H)-dione trihydrochloride]
0.251	COc1cccc2c1N1CCN(CCn3c(=O)[nH]c4c(sc5cccnc54)c3=O)CC1CO2.Cl.Cl (single isomer, unassigned; (-)) [Example 7, (−) 3-[2-(10methoxy-1,2,4a,5-tetrahydropyrazino[2,1-c][1,4]benzoxazin-3(4H)-yl)ethyl]pyrido[2′,3′:4,5]thieno[3,2-d]pyrimidine-2,4(1H,3H)-dione dihydrochloride]
13.8	O=c1[nH]c2c(sc3cccnc32)c(=O)n1CCCN1CCN2c3ccccc3OCC2C1 (single isomer, unassigned; (-)) [Example 2, (−) 3-[3-(1,2,4a,5-tetrahydropyrazino[2,1-c][1,4]benzoxazin-3(4H)-yl)propyl]pyrido[2′,3′:4,5]thieno[3,2-d]pyrimidine-2,4(1H,3H)-dione dihydrochloride]
0.41	COc1cccc2c1N1CCN(CCCCn3c(=O)[nH]c4c(sc5ncc(Cl)nc54)c3=O)CC1CO2.Cl.Cl (single isomer, unassigned; (-)) [Example 12, (−) 3-[4-(10-methoxy-1,2,4a,5-tetrahydropyrazino[2,1-c][1,4]benzoxazin-3(4H)-yl)butyl]-8-chloropyrazino[2′,3′:4,5]thieno[3,2-d]pyrimidine-2,4(1H,3H)-dione dihydrochloride]
3.6	O=c1[nH]c2c(sc3cccnc32)c(=O)n1CCCCN1CCN2c3ccccc3OCC2C1 (single isomer, unassigned; (-)) [Example 4, (−) 3-[4-(1.2,4a,5-tetrahydropyrazino[2,1-c][1,4benzoxazin-3(4H)-yl)butyl]pyrido[2′,3′:4,5]thieno[3,2-d]pyrimidine-2,4(1H,3H)-dione dihydrochloride]
0.387	COc1cccc2c1N1CCN(CCCCn3c(=O)[nH]c4c(sc5ncccc54)c3=O)CC1CO2 (single isomer, unassigned; (-)) [Example 11, (−) 3-[4-(10-methoxy-1,2,4a,5-tetrahydropyrazino[2,1-c][1,4]benzoxazin-3(4H)-yl)butyl]pyrido[3′,2′:4.5]thieno[3,2-d]pyrimidine-2,4(1H,3H)-dione trihydrochloride]

Compound	Ki [nM]
(−) 3-[3-(10-methoxy-1,2,4a,5-tetrahydropyrazino[2,1-c][1,4]benzoxazin-3(4H)-yl)butyl]pyrido[2′,3′:4,5]thieno[3,2-d]pyrimidine-2,4(1H,3H)-dione trihydrochloride [Example 10]	0.243
